In US6764829B2, “Nucleoside hydrolase and nucleoside phosphorylase detection kits, dipsticks and substrates” (Albert Einstein College of Medicine of Yeshiva University, priority 1996, dated 2004):
Where two headings read alike, the source gives them in different places.

What was measured:
AMP nucleosidase [1] = biological target: T1, AMP nucleosidase (Escherichia coli, UniProt P0AE12); settings: purine substrate; cited from earlier work
[2] = test system: Giardia intestinalis (Portland 1 strain); assay: Hydrolysis of substrates by Giardia intestinalis supernatants; type: biochemical; settings: 0.24 mM substrate, 50 mM HEPES pH 8
Procedure: Giardia intestinalis (Portland 1 strain) was grown for 2 days in TYI-33 medium supplemented with 5 mM arginine, harvested and washed. A suspension containing 2.91×10^8 cells of Giardia intestinalis in 1 mL of aqueous HEPES buffer (40 mM. pH 7) was mixed with 1 mL of aqueous HEPES buffer (40 mM, pH 7) containing 0.1 mM protease inhibitor E-64 and sonicated (Branson sonicator, duty cycle 40, output 2.5), for 2-3 min in ice. The suspension was then centrifuged in a Beckman microfuge for 10 mins at 4° C., and the supernatant decanted.
A second suspension of 2.91×10^8 cells of Giardia intestinalis in 1 mL of aqueous HEPES buffer (40 mM, pH 7) was mixed with 1 mL of 0.5% aqueous Triton X-100, left at 4° C. overnight, and the supernatant was decanted.
Aliquots (between 2 and 100 μL) of each of these supernatants were made up to a volume of 1 mL of water containing 50 mM HEPES buffer at pH 8, 0.24 mM 4-nitrophenyl β-D-ribofuranoside or 4-pyridyl β-D-ribofuranoside. The release of the aglycon was monitored by absorption spectrometry at 400 nm or 253 nm, respectively.
Protein was determined by Lowry method (ie Folin reaction).

IAG-nucleoside hydrolase [3] = biological target: T2, IAG-nucleoside hydrolase (Trypanosoma brucei, UniProt Q57ZL6); assay: Comparison of β-D-ribofuranoside substrates with IAG-nucleoside hydrolase (Table 3); type: biochemical; settings: for IAG NH rate: at 200 μM substrate
T2 sequence (Q57ZL6 1-327): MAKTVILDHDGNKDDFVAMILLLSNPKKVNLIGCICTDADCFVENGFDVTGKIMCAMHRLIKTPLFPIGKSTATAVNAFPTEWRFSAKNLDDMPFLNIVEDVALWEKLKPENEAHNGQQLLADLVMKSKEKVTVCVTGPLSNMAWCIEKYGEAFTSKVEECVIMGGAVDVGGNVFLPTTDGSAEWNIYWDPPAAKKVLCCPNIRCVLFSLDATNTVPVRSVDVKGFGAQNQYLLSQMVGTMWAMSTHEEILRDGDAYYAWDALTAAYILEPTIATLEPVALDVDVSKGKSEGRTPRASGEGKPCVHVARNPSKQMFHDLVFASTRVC
Procedure: (§1) The enzymes used were highly purified samples from Crithidia fasciculata (IU-nucleoside hydrolase) and Trypanosoma brucei brucei (IAG-nucleoside hydrolase), available as stock solutions of approximately 20 mg protein/mL.
(§2) Each reaction was conducted in a quartz cuvette with a 1 cm path length, placed in the observation chamber of a UV spectrophotometer, and in a total reaction volume of 600 μL. The temperature was adjusted by use of a circulating water bath, set so that the cuvette temperature equilibrated to 30° C. in about 5 minutes.
(§3) The β-D-ribofuranoside substrates were dissolved in aqueous buffer: 50 mM CHES for reactions at pH 10, 50 mM HEPES for reactions at pH 8. […] For the remaining reactions catalysed by IAG hydrolase, a single substrate concentration of between 100 and 300 μM was used.
(§4) The absorbance of each reaction mixture was monitored at or near the absorption maximum for the phenolic aglycon (as shown in Table 3). Monitoring began 5-10 minutes before the enzyme was added to determine if the substrate was stable under the reaction conditions.
(§5) Data were fitted to the Michaelis-Menton equation using kaleidagraph, and the resulting kinetic parameters along with other relevant data are summarized in Table 3.

T. vaginalis = assay: Hydrolysis of substrates by T. vaginalis extract; type: biochemical; settings: Triton X-100 extract; determined as in Example 24
Procedure: T. vaginalis was grown for 2 days in TYM medium, harvested, and washed. […] The ability of the extract to hydrolyse substrates was determined as in Example 24. For 4-nitrophenyl β-D-ribofuranoside, the activity was 165 nmoles.min^−1 per 10^8 cells, corresponding to an activity for the enzyme of 9 nmoles.min^−1.(mg protein)^−1. For 4-pyridyl β-D-ribofuranoside, the activity was 74 nmoles.min^−1 per […] corresponding to an activity for the enzyme of 4 nmoles.min^−1.(mg protein)^−1.

[4] = biological target: T3, Purine nucleoside phosphorylase (Bos taurus, UniProt P55859); assay: Kinetic parameters (phosphorolysis) with nitrophenylriboside and purine substrate (Table 1); type: biochemical, bovine; design: The E. coli and bovine spleen enzymes tested; from tissue; host or cells: bovine spleen
T3 sequence (P55859 1-289): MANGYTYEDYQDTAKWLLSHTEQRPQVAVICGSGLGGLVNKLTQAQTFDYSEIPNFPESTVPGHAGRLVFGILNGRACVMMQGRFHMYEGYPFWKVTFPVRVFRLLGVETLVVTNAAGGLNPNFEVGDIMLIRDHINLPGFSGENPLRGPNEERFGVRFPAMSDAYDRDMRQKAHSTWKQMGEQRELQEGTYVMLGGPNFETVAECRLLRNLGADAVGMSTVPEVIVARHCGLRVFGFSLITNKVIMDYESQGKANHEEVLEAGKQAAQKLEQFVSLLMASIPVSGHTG
From the text: (§6) In this Example kinetic parameters for different enzymes were compared using nitrophenylriboside or a purine substrate. […] The E. coli and bovine spleen enzymes tested were ineffective in hydrolysing the substrate. The striking ability of one of the protozoan parasite enzymes to hydrolyse the substrate provides the basis for an assay for the protozoan parasites (see Example 22).

[5] = test system: blood from mice infected with Trypanosoma cruzi; assay: Rate of hydrolysis of nitrophenyl riboside with control or infected mouse blood; type: biochemical; settings: for rate of hydrolysis: 0.24 mM substrate, 50 mM HEPES pH 8.0, 30° C., 400 nm
Procedure: The utility of nitrophenylriboside as a substrate for detecting protozoan infections using the presence of nucleoside hydrolases was tested using blood from mice infected with Trypanosoma cruzi, the causitive agent of Chagas disease (Table 2). […] The values obtained from the assay from the infected mice were strikingly elevated above those of the uninfected controls.

GI-nucleoside hydrolase [6] = assay: Kinetic parameters with nitrophenylriboside and purine substrate (Table 1); type: biochemical, Crithidia fasciculata
From the text: as §6

IU-nucleoside hydrolase [7] = biological target: T4, IU-nucleoside hydrolase (Crithidia fasciculata, UniProt Q27546); assay: as above; type: biochemical
T4 sequence (Q27546 1-315): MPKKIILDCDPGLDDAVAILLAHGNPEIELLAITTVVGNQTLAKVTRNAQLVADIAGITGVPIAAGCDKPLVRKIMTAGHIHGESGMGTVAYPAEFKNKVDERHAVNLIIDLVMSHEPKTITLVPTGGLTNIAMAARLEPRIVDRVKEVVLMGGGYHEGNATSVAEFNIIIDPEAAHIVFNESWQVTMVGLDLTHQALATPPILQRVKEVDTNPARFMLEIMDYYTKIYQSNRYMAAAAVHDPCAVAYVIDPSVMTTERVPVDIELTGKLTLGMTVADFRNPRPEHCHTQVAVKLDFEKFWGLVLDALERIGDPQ
From the text: as §6

IAG-nucleoside hydrolase [8] = biological target: T2, IAG-nucleoside hydrolase; assay: as above; type: biochemical
From the text: as §6

AMP nucleosidase [9] = biological target: T1, AMP nucleosidase; assay: Kinetic parameters with nitrophenylriboside 5-phosphate and purine substrate (Table 1); type: biochemical, E coli; settings: summary of Table 1
From the text: as §6

IU-nucleoside hydrolase [10] = biological target: T4, IU-nucleoside hydrolase; assay: Comparison of β-D-ribofuranoside substrates with IU-nucleoside hydrolase (Table 3); type: biochemical
Procedure: as §1, §2, §3, §4, §5

[11] = Stability of substrate under the reaction conditions before enzyme was added; type: physicochemical; settings: pH 10, 30° C., monitored 5-10 minutes before the enzyme was added
Procedure: as §4

GI-nucleoside hydrolase [12] = settings: purine substrate; cited from earlier work
IAG-nucleoside hydrolase [13] = biological target: T2, IAG-nucleoside hydrolase; settings: purine substrate; cited from earlier work
[14] = biological target: T3, Purine nucleoside phosphorylase; design: bovine spleen enzymes tested; from tissue; host or cells: bovine spleen; settings: purine substrate; cited from earlier work
IU-nucleoside hydrolase [15] = biological target: T4, IU-nucleoside hydrolase; settings: purine substrate; cited from earlier work
[16] = kcat/Km for nitrophenylriboside to that for inosine
[17] = nitrophenylriboside as substrate, pH 8.0 in 50 mM HEPES, 30° C.
[18] = listed as 2-(5-nitropyridyl) riboside

T1 sequence (P0AE12 whole entry): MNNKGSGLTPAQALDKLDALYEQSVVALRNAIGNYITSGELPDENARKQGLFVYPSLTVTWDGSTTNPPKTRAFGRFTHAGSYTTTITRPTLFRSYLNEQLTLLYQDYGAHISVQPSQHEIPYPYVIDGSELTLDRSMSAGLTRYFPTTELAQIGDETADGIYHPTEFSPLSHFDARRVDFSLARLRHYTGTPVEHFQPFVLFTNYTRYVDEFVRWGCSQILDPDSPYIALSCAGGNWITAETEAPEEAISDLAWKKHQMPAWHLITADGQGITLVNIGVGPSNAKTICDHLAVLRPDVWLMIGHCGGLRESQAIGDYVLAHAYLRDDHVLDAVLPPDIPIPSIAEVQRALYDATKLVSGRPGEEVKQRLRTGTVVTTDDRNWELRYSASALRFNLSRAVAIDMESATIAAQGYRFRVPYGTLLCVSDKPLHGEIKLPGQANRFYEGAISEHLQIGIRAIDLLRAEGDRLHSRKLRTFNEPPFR

Nc1ncnc2c1ncn2[C@@H]1O[C@H](COP(=O)(O)O)[C@@H](O)[C@H]1O [AMP]
Km (AMP nucleosidase [1]): 150 µM | kcat (AMP nucleosidase [1]): 27 s⁻¹

O=[N+]([O-])c1ccc(O[C@@H]2O[C@H](CO)[C@@H](O)[C@H]2O)cc1 [Example 1, p-nitrophenyl β-D-ribofuranoside]
activity per cells [2]: 470 nmoles.min^−1 per 10^8 cells | activity for the enzyme ([2]; protein by Lowry method): 70 nmoles.min^−1.(mg protein)^−1 | IAG NH rate (IAG-nucleoside hydrolase [3]; pH 10.0): 0.05 min⁻¹ | activity for the enzyme (T. vaginalis): 9 nmoles.min^−1.(mg protein)^−1 | activity per cells (T. vaginalis): 165 nmoles.min^−1 per 10^8 cells | kcat/Km ratio [4, 16]: 1 × 10^−6 | substrate quality in words ([4]; summary of Table 1): ineffective | detection of nucleoside hydrolase in words ([5]; blood lysate prepared from one microliter of infected blood): readily detects the presence of the nucleoside hydrolase | rate of hydrolysis ([5]; mouse blood infected, T cruzi var Brazil): 4.6 ± 0.5 (3) pmol/min/mg | rate of hydrolysis ([5]; mouse blood infected, T cruzi var Tulahuen): 3.9 ± 0.5 (4) pmol/min/mg | rate of hydrolysis ([5]; uninfected control mouse blood): 0.7 ± 0.8 (11) pmol/min/mg | kcat/Km ratio (GI-nucleoside hydrolase [6]; kcat/Km for nitrophenylriboside to that for guanosine): 4 × 10^−5 | Km (GI-nucleoside hydrolase [6]; [17]): 468 µM | kcat (GI-nucleoside hydrolase [6]; [17]): 0.07 s⁻¹ | kcat/Km ratio (IU-nucleoside hydrolase [7]; [16]): 54 | substrate quality in words (IU-nucleoside hydrolase [7]; summary of Table 1): good substrate | kcat/Km ratio (IAG-nucleoside hydrolase [8]; [16]): 8 × 10^−4 | substrate quality in words (IAG-nucleoside hydrolase [8]; summary of Table 1): relatively poor | substrate quality in words (AMP nucleosidase [9]): ineffective | substrate quality in words (IU-nucleoside hydrolase [10]): good substrates | substrate quality in words (IU-nucleoside hydrolase [10]; listed as p-nitrophenylriboside): particularly good substrate

O=[N+]([O-])c1ccc(O[C@@H]2O[C@H](CO)[C@@H](O)[C@H]2O)nc1 [Example 13, 2-(5-nitropyridyl) β-D-ribofuranoside]
substrate quality in words (IAG-nucleoside hydrolase [3]): good substrates | IAG NH rate (IAG-nucleoside hydrolase [3]; pH 8.0): >100 min⁻¹ | IAG NH rate (IAG-nucleoside hydrolase [3]; pH 10.0): >100 min⁻¹ | substrate quality in words (IAG-nucleoside hydrolase [3]; [18]): substantially greater activity | substrate quality in words (IU-nucleoside hydrolase [10]): good substrates | IU NH kcat (IU-nucleoside hydrolase [10]; At pH 10, 30° C.): 100 s⁻¹ | Km (IU-nucleoside hydrolase [10]; At pH 10, 30° C., read-out: IU NH Km): 122 µM | substrate quality in words (IU-nucleoside hydrolase [10]; [18]): lower activity | hydrolysis in the absence of enzyme [11]: hydrolysis observed in the absence of enzyme

Nc1nc2c(ncn2[C@@H]2O[C@H](CO)[C@@H](O)[C@H]2O)c(=O)[nH]1 [guanosine]
Km (GI-nucleoside hydrolase [12]): 77 µM | kcat (GI-nucleoside hydrolase [12]): 231 s⁻¹

OC[C@H]1O[C@@H](n2cnc3c(O)ncnc32)[C@H](O)[C@@H]1O [inosine]
Km (IAG-nucleoside hydrolase [13]): 18 µM | kcat (IAG-nucleoside hydrolase [13]): 34 s⁻¹ | Km [14]: 19 µM | kcat [14]: 12 s⁻¹ | kcat (IU-nucleoside hydrolase [15]): 28 s⁻¹
